In US7981901B2, “Compositions and methods for targeting cerebral circulation and treatment of headache” (priority 2001, dated 2011):

What was measured:
headache = assay: Topical NSAID formulations in treatment of headache (inventors' observation); assay type: in vivo, human; conditions: topically applied to tender spot or area superficial to carotid, temporal and/or vertebral artery
Description: Especially preferred compositions include a xanthine derivative in a concentration of about 4% (wt) to 70% (wt) and ketoprofen in a concentration of about 0.5% (wt) to 50% (wt). With respect to the xanthine derivative, the same considerations as described above apply. Furthermore, such particularly preferred compositions may be formulated in a lecithin-containing formulation or a pluronic-lecithin-organogel formulation (supra). It should be especially recognized, that compositions including a xanthine derivative or an NSAID have generally been described in the art. However, the inventors observed that formulations including an NSAID other than Ketoprofen generally fail to provide relief in treatment of a headache, when topically applied to a person (either to a tender spot, or to an area superficial to a carotid artery, a temporal artery and/or a vertebral artery). […] While not wishing to be bound by a particular hypothesis or theory, the inventors contemplate that the effect of Ketoprofen may be at least in part mediated by a muscle-relaxant effect rather than via a suppressive effect in inflammation.

fever = conditions: oral delivery; cited from earlier work

| Structure (SMILES) | relief in treatment of a headache (headache) | time to achieve sufficient concentration in the plasma to lower the fever (fever) |
| --- | --- | --- |
| CC(C(=O)O)c1cccc(C(=O)c2ccccc2)c1 (centres unmarked) [Ketoprofen, 2-(meta-benzoylphenyl)propionic acid] | the only NSAID effective in treatment of a headache | – |
| CC(=O)Nc1ccc(O)cc1 [acetaminophen, Acetaminophen] | – | at least 20 minutes |
